Patent publication US7632933B2, “Corticotropin releasing factor 2 receptor agonists” (priority 2002, dated 2009)
Where two headings read alike, the source gives them in different places. Peptide text beside a SMILES is read from it.

Experiments:
[1] = target: T1, CRF2R (Homo sapiens, UniProt Q13324); experiment: CRF2R agonist activity (EC50 and Emax), called comparative CRF binding; type: cell-based; conditions: CRF2R
T1 sequence (Q13324 1-411): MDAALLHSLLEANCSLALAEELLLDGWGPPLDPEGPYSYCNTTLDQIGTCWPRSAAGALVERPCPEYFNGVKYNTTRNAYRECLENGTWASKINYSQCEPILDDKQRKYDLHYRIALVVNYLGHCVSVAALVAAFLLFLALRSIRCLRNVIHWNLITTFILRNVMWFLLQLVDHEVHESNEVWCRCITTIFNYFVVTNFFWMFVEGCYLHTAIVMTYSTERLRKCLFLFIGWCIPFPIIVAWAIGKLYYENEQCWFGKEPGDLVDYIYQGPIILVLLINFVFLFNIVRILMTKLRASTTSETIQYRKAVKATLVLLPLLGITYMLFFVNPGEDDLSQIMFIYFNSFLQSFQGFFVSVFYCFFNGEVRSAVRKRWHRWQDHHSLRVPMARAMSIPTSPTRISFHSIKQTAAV
Description: (§1) The pharmacological activity and selectivity of the peptides of present invention can be determined using published test procedures. See, e.g, U.S. patent application Ser. No. 09/799,978. Because CRF2R and CRF1R are homologous proteins, it is expected that a certain proportion of agonists for CRF2R will also function as agonists of CRF1R. As discussed above, activation of CRF1R induces activation of the HPA axis since increased corticosteroid production leads to skeletal muscle atrophy. In most cases in which an increase in muscle mass or function is desired, it is not desirable to activate the HPA axis.
(§2) Because it is desirable to discriminate binding between CRF2R, as compared with CRF1R, the assays described above may be conducted using a cell, or membrane from a cell, which expresses only CRF2R or the assays can be conducted with a recombinant source of CRF2R. Cells expressing both forms of CRFR may be modified using homologous recombination to inactivate or otherwise disable the CRF1R gene. Alternatively, if the source of CRFR contains more than one CRFR type, the background signal produced by the receptor which is not of interest must be subtracted from the signal obtained in the assay. […] Known antagonists of CRFRs include, but are not limited to, antalarmin (CRF1R selective), antisauvagine-30 (CRF2R selective) and astressin (nonselective for CRF1R/CRF2R).
(§3) Cell-based assays include the steps of contacting cells which express CRF1R or CRF2R with a peptide of the present invention or control and measuring activation of the CRFR by measuring the expression or activity of components of the CRFR signal transduction pathways.
(§4) For example, after contact with a peptide of the present invention, lysates of the cells can be prepared and assayed for induction of cAMP. cAMP is induced in response to Gαs activation. Because Gαs is activated by receptors other than CRFR and because a test peptide may be exerting its effect through CRFRs or by another mechanism, two control comparisons are relevant for determining whether the peptide increases levels of cAMP via activation of a CRFR. One control compares the cAMP level of cells contacted with the peptide and the cAMP level of cells contacted with a control compound (i.e., the vehicle in which the peptide is dissolved).
(§5) In one example, cAMP induction is measured with the use of DNA constructs containing the cAMP responsive element linked to any of a variety of reporter genes can be introduced into cells expressing CRFRs. Such reporter genes include, but are not limited to, chloramphenicol acetyltransferase (CAT), luciferase, glucuronide synthetase, growth hormone, fluorescent proteins (e.g., Green Fluorescent Protein), or alkaline phosphatase. Following exposure of the cells to the peptide, the level of reporter gene expression can be quantitated to determine the peptide's ability to increase cAMP levels and thus determine the peptide's ability to activate the CRFR.
(§6) In addition to using cells expressing full length CRFRs, cells can be engineered which express CRFRs containing the ligand binding domain of the receptor coupled to, or physically modified to contain, reporter elements or to interact with signaling proteins. For example, a wild type CRFR or CRFR fragment can be fused to a G-protein resulting in activation of the fused G-protein upon agonist binding to the CRFR portion of the fusion protein. […] In addition, alternative pathways for induction of the CRE reporter could be eliminated to reduce basal levels.

[2] = target: T2, CRF1R (Homo sapiens, UniProt P34998); experiment: CRF1R agonist activity (EC50 and Emax), called comparative CRF binding; type: cell-based; conditions: CRF1R
T2 sequence (P34998 24-415): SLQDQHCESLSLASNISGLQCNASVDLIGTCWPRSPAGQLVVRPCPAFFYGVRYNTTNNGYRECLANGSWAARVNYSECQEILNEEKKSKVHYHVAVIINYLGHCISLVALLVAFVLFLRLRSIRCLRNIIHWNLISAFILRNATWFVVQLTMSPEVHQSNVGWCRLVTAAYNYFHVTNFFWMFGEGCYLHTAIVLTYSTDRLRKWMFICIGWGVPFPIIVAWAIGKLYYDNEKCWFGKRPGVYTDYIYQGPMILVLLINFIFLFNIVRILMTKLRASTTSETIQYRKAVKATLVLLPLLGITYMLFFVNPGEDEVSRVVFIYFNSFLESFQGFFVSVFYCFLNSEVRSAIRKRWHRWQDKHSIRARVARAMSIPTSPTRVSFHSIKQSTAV
Description: as §1, §2, §3, §4, §5, §6

Compound	EC50 ([1]; read-out: CRF2R EC50) [nM]	EC50 ([2]; read-out: CRF1R EC50) [nM]	CRF2R (Emax %) [1]	CRF1R (Emax %) [2]	EC50 ([1]; CRF2R EC50 (nM)) [nM]	EC50 ([2]; CRF1R EC50 (nM)) [nM]
CC[C@H](C)[C@H](N)C(=O)N[C@H](C(=O)N[C@@H](CC(C)C)C(=O)N[C@@H](CO)C(=O)N[C@@H](CC(C)C)C(=O)N[C@@H](CC(=O)O)C(=O)N[C@H](C(=O)N1CCC[C@H]1C(=O)N[C@H](C(=O)NCC(=O)N[C@@H](CC(C)C)C(=O)N[C@@H](CC(C)C)C(=O)N[C@@H](CCC(N)=O)C(=O)N[C@H](C(=O)N[C@@H](CC(C)C)C(=O)N[C@@H](CC(C)C)C(=O)N[C@@H](CCC(=O)O)C(=O)N[C@@H](CCC(N)=O)C(=O)N[C@H](C(=O)N[C@@H](CCCCN)C(=O)N[C@@H](C)C(=O)N[C@@H](CC(N)=O)C(=O)N[C@@H](C)C(=O)N[C@@H](C)C(=O)N[C@@H](CCCNC(=N)N)C(=O)N[C@@H](CCC(=O)O)C(=O)N[C@@H](CCC(N)=O)C(=O)N[C@@H](C)C(=O)N[C@H](C(=O)N[C@H](C(=O)N[C@H](C(=O)N[C@@H](C)C(=O)N[C@@H](CCCNC(=N)N)C(=O)N[C@H](C(=O)N[C@@H](CC(C)C)C(=O)N[C@@H](C)C(=O)N[C@@H](CCCNC(=N)N)C(=O)N[C@H](C(N)=O)C(C)C)[C@@H](C)CC)C(C)C)[C@@H](C)O)[C@@H](C)O)[C@@H](C)O)[C@@H](C)CC)[C@@H](C)CC)C(C)C)C(C)C [compound 116] (H-IVLSLDVPIGLLQILLEQTKANAAREQATTVARILARV-NH2)	≥ 100	≥ 100	–	–	–	–
CC[C@H](C)[C@H](N)C(=O)N[C@H](C(=O)N[C@@H](CC(C)C)C(=O)N[C@@H](CO)C(=O)N[C@@H](CC(C)C)C(=O)N[C@@H](CC(=O)O)C(=O)N[C@H](C(=O)N1CCC[C@H]1C(=O)N[C@H](C(=O)NCC(=O)N[C@@H](CC(C)C)C(=O)N[C@@H](CC(C)C)C(=O)N[C@@H](CCC(N)=O)C(=O)N[C@H](C(=O)N[C@@H](CC(C)C)C(=O)N[C@@H](CC(C)C)C(=O)N[C@@H](CCC(=O)O)C(=O)N[C@@H](CCC(N)=O)C(=O)N[C@@H](C)C(=O)N[C@@H](CCCCN)C(=O)N[C@@H](C)C(=O)N[C@@H](CCCNC(=N)N)C(=O)N[C@@H](C)C(=O)N[C@@H](C)C(=O)N[C@@H](CCCNC(=N)N)C(=O)N[C@@H](CCC(=O)O)C(=O)N[C@@H](CCC(N)=O)C(=O)N[C@@H](C)C(=O)N[C@H](C(=O)N[C@H](C(=O)N[C@@H](CC(N)=O)C(=O)N[C@@H](C)C(=O)N[C@@H](CCCNC(=N)N)C(=O)N[C@H](C(=O)N[C@@H](CC(C)C)C(=O)N[C@@H](C)C(=O)N[C@@H](CCCNC(=N)N)C(=O)N[C@H](C(N)=O)C(C)C)[C@@H](C)CC)[C@@H](C)O)[C@@H](C)O)[C@@H](C)CC)[C@@H](C)CC)C(C)C)C(C)C [compound 127] (H-IVLSLDVPIGLLQILLEQAKARAAREQATTNARILARV-NH2; N-terminus assumed)	7.79	–	(94) %	(6) %	–	–
CC[C@H](C)[C@H](N)C(=O)N[C@H](C(=O)N[C@@H](CC(C)C)C(=O)N[C@@H](CO)C(=O)N[C@@H](CC(C)C)C(=O)N[C@@H](CC(=O)O)C(=O)N[C@H](C(=O)N1CCC[C@H]1C(=O)N[C@H](C(=O)NCC(=O)N[C@@H](CC(C)C)C(=O)N[C@@H](CC(C)C)C(=O)N[C@@H](CCC(N)=O)C(=O)N[C@H](C(=O)N[C@@H](CC(C)C)C(=O)N[C@@H](CC(C)C)C(=O)N[C@@H](CCC(=O)O)C(=O)N[C@@H](CCC(N)=O)C(=O)N[C@H](C(=O)N[C@@H](CCCCN)C(=O)N[C@@H](C)C(=O)N[C@@H](CCCNC(=N)N)C(=O)N[C@@H](C)C(=O)N[C@@H](C)C(=O)N[C@@H](CCCNC(=N)N)C(=O)N[C@@H](CCC(=O)O)C(=O)N[C@@H](CCC(N)=O)C(=O)N[C@@H](C)C(=O)N[C@H](C(=O)N[C@H](C(=O)N[C@@H](CC(N)=O)C(=O)N[C@@H](C)C(=O)N[C@@H](CCCNC(=N)N)C(=O)N[C@H](C(=O)N[C@@H](CC(C)C)C(=O)N[C@@H](C)C(=O)N[C@@H](CCCNC(=N)N)C(=O)N[C@H](C(N)=O)C(C)C)[C@@H](C)CC)[C@@H](C)O)[C@@H](C)O)[C@@H](C)O)[C@@H](C)CC)[C@@H](C)CC)C(C)C)C(C)C [compound 129] (H-IVLSLDVPIGLLQILLEQTKARAAREQATTNARILARV-NH2)	3.83	–	(92) %	(12) %	–	–
CC[C@H](C)[C@H](N)C(=O)N[C@H](C(=O)N[C@@H](CC(C)C)C(=O)N[C@@H](CO)C(=O)N[C@@H](CC(C)C)C(=O)N[C@@H](CC(=O)O)C(=O)N[C@H](C(=O)N1CCC[C@H]1C(=O)N[C@H](C(=O)NCC(=O)N[C@@H](CC(C)C)C(=O)N[C@@H](CC(C)C)C(=O)N[C@@H](CCC(N)=O)C(=O)N[C@H](C(=O)N[C@@H](CC(C)C)C(=O)N[C@@H](CC(C)C)C(=O)N[C@@H](CCC(=O)O)C(=O)N[C@@H](CCC(N)=O)C(=O)N[C@@H](C)C(=O)N[C@@H](C)C(=O)N[C@@H](C)C(=O)N[C@@H](C)C(=O)N[C@@H](CCCNC(=N)N)C(=O)N[C@@H](CCC(=O)O)C(=O)N[C@@H](CCC(N)=O)C(=O)N[C@@H](C)C(=O)N[C@H](C(=O)N[C@H](C(=O)N[C@@H](CC(N)=O)C(=O)N[C@@H](C)C(=O)N[C@@H](CCCNC(=N)N)C(=O)N[C@H](C(=O)N[C@@H](CC(C)C)C(=O)N[C@@H](C)C(=O)N[C@@H](CCCNC(=N)N)C(=O)N[C@H](C(N)=O)C(C)C)[C@@H](C)CC)[C@@H](C)O)[C@@H](C)O)[C@@H](C)CC)[C@@H](C)CC)C(C)C)C(C)C [compound 134] (H-IVLSLDVPIGLLQILLEQAAAAREQATTNARILARV-NH2)	–	–	–	–	> 100	> 100
CC[C@H](C)[C@H](N)C(=O)N[C@H](C(=O)N[C@@H](CC(C)C)C(=O)N[C@@H](CO)C(=O)N[C@@H](CC(C)C)C(=O)N[C@@H](CC(=O)O)C(=O)N[C@H](C(=O)N1CCC[C@H]1C(=O)N[C@H](C(=O)NCC(=O)N[C@@H](CC(C)C)C(=O)N[C@@H](CC(C)C)C(=O)N[C@@H](CCC(N)=O)C(=O)N[C@H](C(=O)N[C@@H](CC(C)C)C(=O)N[C@@H](CC(C)C)C(=O)N[C@@H](CCC(=O)O)C(=O)N[C@@H](CCC(N)=O)C(=O)N[C@@H](C)C(=O)N[C@@H](C)C(=O)N[C@@H](CCCNC(=N)N)C(=O)N[C@@H](C)C(=O)N[C@@H](C)C(=O)N[C@@H](CCCNC(=N)N)C(=O)N[C@@H](CCC(=O)O)C(=O)N[C@@H](CCC(N)=O)C(=O)N[C@@H](C)C(=O)N[C@H](C(=O)N[C@H](C(=O)N[C@@H](CC(N)=O)C(=O)N[C@@H](C)C(=O)N[C@@H](CCCNC(=N)N)C(=O)N[C@H](C(=O)N[C@@H](CC(C)C)C(=O)N[C@@H](C)C(=O)N[C@@H](CCCNC(=N)N)C(=O)N[C@H](C(N)=O)C(C)C)[C@@H](C)CC)[C@@H](C)O)[C@@H](C)O)[C@@H](C)CC)[C@@H](C)CC)C(C)C)C(C)C [compound 135] (H-IVLSLDVPIGLLQILLEQAARAAREQATTNARILARV-NH2)	> 100	> 100	–	–	–	–
